This note sets out measurements from ChEMBL document CHEMBL5291721, “A preclinical secondary pharmacology resource illuminates target-adverse drug reaction associations of marketed drugs” (Nat Commun, 2023).

One assay addresses T1, Androgen receptor (Rattus norvegicus, UniProt P15207).
T1 sequence (P15207 whole entry): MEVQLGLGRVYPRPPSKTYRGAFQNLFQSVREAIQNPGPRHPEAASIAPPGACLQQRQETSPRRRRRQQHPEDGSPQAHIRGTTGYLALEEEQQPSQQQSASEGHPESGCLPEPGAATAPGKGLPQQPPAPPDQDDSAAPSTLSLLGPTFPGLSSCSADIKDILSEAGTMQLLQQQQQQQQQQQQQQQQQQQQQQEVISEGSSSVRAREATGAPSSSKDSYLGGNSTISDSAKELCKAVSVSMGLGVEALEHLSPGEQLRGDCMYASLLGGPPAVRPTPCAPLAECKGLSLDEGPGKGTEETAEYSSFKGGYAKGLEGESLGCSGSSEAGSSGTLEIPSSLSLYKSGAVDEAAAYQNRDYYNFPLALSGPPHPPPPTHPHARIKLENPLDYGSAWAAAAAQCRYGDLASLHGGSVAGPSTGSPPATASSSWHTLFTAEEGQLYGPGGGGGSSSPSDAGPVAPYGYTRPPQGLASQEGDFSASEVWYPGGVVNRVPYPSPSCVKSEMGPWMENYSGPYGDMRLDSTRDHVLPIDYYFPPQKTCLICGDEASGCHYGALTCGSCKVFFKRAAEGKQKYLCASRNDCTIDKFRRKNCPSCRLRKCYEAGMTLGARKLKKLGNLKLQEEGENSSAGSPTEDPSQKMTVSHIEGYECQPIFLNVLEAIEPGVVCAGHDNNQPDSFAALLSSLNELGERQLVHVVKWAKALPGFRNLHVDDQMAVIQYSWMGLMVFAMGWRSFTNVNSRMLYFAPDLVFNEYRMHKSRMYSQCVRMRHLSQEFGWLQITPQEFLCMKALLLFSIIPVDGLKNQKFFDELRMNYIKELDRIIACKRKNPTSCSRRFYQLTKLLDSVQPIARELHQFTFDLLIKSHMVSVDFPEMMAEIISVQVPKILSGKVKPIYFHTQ
In kind it is functional.

The target of assay [1] is T2, Alpha-2A adrenergic receptor (Homo sapiens, UniProt P08913).
T2 sequence (P08913 whole entry): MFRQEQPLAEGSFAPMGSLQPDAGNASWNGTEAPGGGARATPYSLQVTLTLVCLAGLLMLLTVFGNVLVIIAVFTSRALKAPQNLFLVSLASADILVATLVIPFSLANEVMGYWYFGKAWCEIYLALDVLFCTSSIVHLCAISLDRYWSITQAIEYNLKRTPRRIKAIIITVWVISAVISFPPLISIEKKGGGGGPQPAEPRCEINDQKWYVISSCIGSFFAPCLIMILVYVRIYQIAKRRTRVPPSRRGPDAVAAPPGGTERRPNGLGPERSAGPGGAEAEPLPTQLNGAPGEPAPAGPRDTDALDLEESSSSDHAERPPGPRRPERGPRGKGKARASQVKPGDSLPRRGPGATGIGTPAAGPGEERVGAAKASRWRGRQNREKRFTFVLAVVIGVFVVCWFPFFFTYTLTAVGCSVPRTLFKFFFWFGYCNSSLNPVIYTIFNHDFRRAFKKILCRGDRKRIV

For assay [2], the target named is T3, 5-hydroxytryptamine receptor 1A (Homo sapiens, UniProt P08908).
T3 sequence (P08908 whole entry): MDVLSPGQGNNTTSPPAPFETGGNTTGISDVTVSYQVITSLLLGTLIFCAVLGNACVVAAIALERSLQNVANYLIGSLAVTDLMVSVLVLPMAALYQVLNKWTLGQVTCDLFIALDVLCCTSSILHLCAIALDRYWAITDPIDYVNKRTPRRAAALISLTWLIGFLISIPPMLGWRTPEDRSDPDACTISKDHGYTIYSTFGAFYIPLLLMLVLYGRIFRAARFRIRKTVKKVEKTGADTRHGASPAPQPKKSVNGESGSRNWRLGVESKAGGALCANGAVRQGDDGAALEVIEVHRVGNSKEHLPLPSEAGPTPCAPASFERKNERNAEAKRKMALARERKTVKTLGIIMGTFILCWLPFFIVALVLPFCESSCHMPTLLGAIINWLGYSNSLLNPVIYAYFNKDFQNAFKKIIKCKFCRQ

Assay [3] concerns the target T4, Gamma-aminobutyric acid receptor subunit alpha-1/alpha-2/beta-2/gamma-2 (Homo sapiens, UniProt P14867+P18507+P47869+P47870). The format is functional, cell-based.
For assay [4], the target named is T5, Peroxisome proliferator-activated receptor gamma (Homo sapiens, UniProt P37231).
T5 sequence (P37231 whole entry): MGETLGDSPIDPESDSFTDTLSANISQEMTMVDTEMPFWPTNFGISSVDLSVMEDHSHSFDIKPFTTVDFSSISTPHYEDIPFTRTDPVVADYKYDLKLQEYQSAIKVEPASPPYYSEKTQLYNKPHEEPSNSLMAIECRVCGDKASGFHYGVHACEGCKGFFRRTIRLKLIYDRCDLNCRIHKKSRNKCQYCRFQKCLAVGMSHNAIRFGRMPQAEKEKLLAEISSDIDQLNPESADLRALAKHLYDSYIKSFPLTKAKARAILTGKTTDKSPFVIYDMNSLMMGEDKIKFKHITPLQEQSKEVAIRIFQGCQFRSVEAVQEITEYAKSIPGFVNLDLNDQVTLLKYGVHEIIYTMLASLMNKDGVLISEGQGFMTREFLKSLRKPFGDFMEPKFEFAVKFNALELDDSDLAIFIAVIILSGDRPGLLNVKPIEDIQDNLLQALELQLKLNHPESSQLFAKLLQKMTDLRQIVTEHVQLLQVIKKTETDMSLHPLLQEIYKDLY
In kind it is functional.

Assay [5] deals with T4, Gamma-aminobutyric acid receptor subunit alpha-1/alpha-2/beta-2/gamma-2. The format is functional, cell-based. The source holds these as a separate data set.
Another assay concerns the target D(1A) dopamine receptor (Homo sapiens, UniProt P21728).
Assay [6] has as its target 5-hydroxytryptamine receptor 2A (Homo sapiens, UniProt P28223).
Also: assay procedure not described here.

D(1A) dopamine receptor, sequence (P21728 whole entry): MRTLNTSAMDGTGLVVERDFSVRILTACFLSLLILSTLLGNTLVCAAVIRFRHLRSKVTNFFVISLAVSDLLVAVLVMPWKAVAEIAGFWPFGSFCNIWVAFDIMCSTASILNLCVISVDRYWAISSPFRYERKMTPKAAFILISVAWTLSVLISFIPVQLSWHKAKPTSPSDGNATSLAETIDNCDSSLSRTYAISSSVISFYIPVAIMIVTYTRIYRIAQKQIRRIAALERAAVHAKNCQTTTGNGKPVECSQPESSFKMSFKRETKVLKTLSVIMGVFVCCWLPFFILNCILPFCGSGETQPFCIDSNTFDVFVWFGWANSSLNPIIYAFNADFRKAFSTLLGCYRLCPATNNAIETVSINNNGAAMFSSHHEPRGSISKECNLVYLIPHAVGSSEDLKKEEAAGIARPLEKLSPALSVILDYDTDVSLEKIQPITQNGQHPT
5-hydroxytryptamine receptor 2A, sequence (P28223 whole entry): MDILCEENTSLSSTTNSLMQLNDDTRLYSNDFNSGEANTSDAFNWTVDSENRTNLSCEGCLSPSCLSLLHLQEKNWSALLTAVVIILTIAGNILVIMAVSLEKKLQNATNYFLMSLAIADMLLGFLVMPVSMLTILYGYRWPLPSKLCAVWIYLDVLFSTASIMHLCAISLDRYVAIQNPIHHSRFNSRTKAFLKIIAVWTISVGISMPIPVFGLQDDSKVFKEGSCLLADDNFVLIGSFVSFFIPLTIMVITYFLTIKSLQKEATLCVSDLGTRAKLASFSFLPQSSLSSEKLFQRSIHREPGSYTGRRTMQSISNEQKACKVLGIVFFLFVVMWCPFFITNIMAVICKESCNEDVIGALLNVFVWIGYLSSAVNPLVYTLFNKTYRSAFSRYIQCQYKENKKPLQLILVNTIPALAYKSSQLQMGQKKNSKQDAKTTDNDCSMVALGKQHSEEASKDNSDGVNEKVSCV
T4 sequence (P14867 whole entry): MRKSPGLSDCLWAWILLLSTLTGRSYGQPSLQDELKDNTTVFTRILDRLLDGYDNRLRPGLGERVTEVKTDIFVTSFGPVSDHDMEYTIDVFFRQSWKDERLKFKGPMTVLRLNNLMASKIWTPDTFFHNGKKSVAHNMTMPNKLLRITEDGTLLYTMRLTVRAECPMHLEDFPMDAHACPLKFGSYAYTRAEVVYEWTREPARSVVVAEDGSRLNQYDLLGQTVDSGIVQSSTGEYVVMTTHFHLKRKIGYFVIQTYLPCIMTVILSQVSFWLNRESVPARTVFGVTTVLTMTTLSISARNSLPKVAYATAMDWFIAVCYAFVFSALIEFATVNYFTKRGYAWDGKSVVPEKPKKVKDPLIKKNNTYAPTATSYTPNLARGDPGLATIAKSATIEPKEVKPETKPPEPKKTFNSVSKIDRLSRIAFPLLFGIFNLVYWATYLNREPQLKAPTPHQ
T4 sequence (P47870 whole entry): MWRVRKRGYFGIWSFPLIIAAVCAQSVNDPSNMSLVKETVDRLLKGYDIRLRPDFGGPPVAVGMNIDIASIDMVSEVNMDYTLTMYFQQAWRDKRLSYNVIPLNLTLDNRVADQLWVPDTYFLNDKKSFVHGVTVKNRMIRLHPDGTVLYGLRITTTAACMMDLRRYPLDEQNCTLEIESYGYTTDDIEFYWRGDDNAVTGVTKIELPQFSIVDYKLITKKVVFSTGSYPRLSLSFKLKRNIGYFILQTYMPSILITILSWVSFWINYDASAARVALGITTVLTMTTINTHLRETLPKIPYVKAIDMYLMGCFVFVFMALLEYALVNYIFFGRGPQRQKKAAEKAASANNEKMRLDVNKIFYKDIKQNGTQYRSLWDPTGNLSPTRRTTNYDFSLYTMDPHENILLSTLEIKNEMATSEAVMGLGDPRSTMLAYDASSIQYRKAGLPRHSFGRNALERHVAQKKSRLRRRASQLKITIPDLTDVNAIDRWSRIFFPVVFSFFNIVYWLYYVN
T4 sequence (P18507 whole entry): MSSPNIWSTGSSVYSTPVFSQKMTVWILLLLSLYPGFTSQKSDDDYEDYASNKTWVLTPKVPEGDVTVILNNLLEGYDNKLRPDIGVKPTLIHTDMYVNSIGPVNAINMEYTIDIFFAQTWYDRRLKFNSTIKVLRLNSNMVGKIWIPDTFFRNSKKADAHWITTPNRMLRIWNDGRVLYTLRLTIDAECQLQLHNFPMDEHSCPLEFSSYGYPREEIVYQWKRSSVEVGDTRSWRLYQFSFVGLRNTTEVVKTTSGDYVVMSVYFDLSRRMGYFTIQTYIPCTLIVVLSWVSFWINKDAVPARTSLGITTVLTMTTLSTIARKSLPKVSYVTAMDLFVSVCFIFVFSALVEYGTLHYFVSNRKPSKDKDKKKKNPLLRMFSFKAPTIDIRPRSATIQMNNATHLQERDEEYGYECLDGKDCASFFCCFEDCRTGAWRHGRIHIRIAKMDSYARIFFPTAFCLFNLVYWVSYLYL
T4 sequence (P47869 whole entry): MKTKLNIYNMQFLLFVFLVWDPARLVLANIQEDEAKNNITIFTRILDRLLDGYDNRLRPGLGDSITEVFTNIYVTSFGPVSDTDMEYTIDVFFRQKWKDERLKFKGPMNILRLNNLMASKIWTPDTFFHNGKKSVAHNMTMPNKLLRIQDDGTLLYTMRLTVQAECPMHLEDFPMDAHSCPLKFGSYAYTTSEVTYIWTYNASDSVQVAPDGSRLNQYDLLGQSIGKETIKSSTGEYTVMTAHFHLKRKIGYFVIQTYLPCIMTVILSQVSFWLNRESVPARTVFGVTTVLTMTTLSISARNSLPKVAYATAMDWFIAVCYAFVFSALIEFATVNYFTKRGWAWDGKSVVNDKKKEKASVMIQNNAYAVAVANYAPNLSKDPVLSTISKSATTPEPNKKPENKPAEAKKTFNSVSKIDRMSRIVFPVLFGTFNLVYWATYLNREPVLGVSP

A word on the AC50: it is the concentration at which the activity in the assay is half-maximal. Low values mean activity at low concentration, high ones activity only at high concentration. In the case of `N#Cc1ccccc1-c1cc(-c2ccccn2)cn(-c2ccccc2)c1=O`, at Androgen receptor, the AC50 was above 30 µM.

For `COc1ccc(/C=C/C(=O)Nc2ccccc2C(=O)O)cc1OC`, the half-maximal activity concentration (AC50) on Androgen receptor is above 30 µM.

At Androgen receptor, `C=C[C@@]1(C)CC(=O)[C@]2(O)[C@@]3(C)[C@@H](O)CCC(C)(C)[C@@H]3[C@H](OC(=O)CCN(C)C)[C@H](OC(C)=O)[C@@]2(C)O1` had a half-maximal activity concentration (AC50) above 30 µM.

With `NCCCC(O)(P(=O)(O)O)P(=O)(O)O` [ALENDRONIC ACID], the AC50 in assay [1] and in assay [2] was above 10 µM in each case.

`Nc1ccc(C(=O)O)c(O)c1` [AMINOSALICYLIC ACID] returned an AC50 at Androgen receptor above 30 µM.

As for `COc1cc(OC)c(C(=O)CCCN2CCCC2)c(OC)c1` [BUFLOMEDIL], the half-maximal activity concentration (AC50) at Androgen receptor was above 30 µM.

Turning to `CS(=O)(=O)OCCCCOS(C)(=O)=O` [BUSULFAN], the half-maximal activity concentration (AC50) in assay [3] and in assay [4] was above 30 µM throughout.

As to `CCCCC1(CC)C(=O)NC(=O)NC1=O` [BUTETHAL], the AC50 (on Androgen receptor; in assay [3]; in assay [5]; in assay [4]) was above 30 µM throughout.

In assay [4], `C=CC1=C(C(=O)O)N2C(=O)[C@@H](NC(=O)/C(=N\OCC(=O)O)c3csc(N)n3)[C@H]2SC1` [CEFIXIME] showed an AC50 above 30 µM.

In the case of `CO[C@@]1(NC(=O)Cc2cccs2)C(=O)N2C(C(=O)O)=C(COC(N)=O)CS[C@@H]21` [CEFOXITIN], the figures for the AC50 in assay [3] and in assay [4] were above 30 µM and 11 µM, respectively.

`CCN(CC)CCOC(=O)c1ccc(N)cc1Cl` [CHLOROPROCAINE]: the AC50 in assay [3], in assay [5] and in assay [4] was above 30 µM in each case.

`CC(C)(C)NCC(O)c1cc(Cl)c(N)c(Cl)c1` (stereo not given) [CLENBUTEROL]: the AC50 (at Androgen receptor; in assay [3]) was above 30 µM each time.

`CCC(C)(Oc1ccc(C2(c3ccc(OC(C)(CC)C(=O)O)cc3)CCCCC2)cc1)C(=O)O` (stereo not given) [CLINOFIBRATE]: the AC50 at Androgen receptor is above 30 µM.

In assay [4], `COc1cccc2c1C(=O)c1c(O)c3c(c(O)c1C2=O)C[C@@](O)(C(C)=O)C[C@@H]3O[C@H]1C[C@H](N)[C@H](O)[C@H](C)O1` [DAUNORUBICIN] yielded an AC50 above 10 µM.

On to `CCCCC[C@H](O)/C=C/[C@H]1[C@H](O)CC(=O)[C@@H]1C/C=C\CCCC(=O)O` [DINOPROSTONE], for which the AC50 on Androgen receptor was 23 µM; at D(1A) dopamine receptor it was above 30 µM.

At Androgen receptor, `COC(=O)N[C@@H](C)CNc1nccc(-c2cn(C(C)C)nc2-c2cc(Cl)cc(NS(C)(=O)=O)c2F)n1` [ENCORAFENIB] came in with an AC50 above 30 µM.

In assay [2], `Clc1ccc2c(c1)C(c1ccccc1)=NCc1nncn1-2` [ESTAZOLAM] gave an AC50 above 10 µM.

For `CCCN(CC)C(CC)C(=O)Nc1c(C)cccc1C` (stereo not given) [ETIDOCAINE], the AC50 in assay [2] was above 30 µM.

In the case of `CC(=O)OCC(CCn1cnc2cnc(N)nc21)COC(C)=O` [FAMCICLOVIR], the AC50 (in assay [1]; in assay [2]; at D(1A) dopamine receptor) was above 10 µM in each case.

Regarding `O=C(O)c1ccccc1Nc1cccc(C(F)(F)F)c1` [FLUFENAMIC ACID], the AC50 in assay [2] was above 10 µM; in assay [6], 0.0771 µM.

With `O=C(O)c1ccccc1OP(=O)(O)O` [FOSFOSAL], the AC50 in assay [3], in assay [5] and in assay [4] was above 30 µM each time.

Consider `Nc1ccn([C@@H]2O[C@H](CO)[C@@H](O)C2(F)F)c(=O)n1` [GEMCITABINE], for which, in assay [2], the AC50 was above 10 µM.

Turning to `CCCCCCOC(=O)CCC(=O)CN` [HEXAMINOLEVULINATE], the AC50 at Androgen receptor is above 30 µM.

In the case of `COC1=C(OC)C(=O)C(CCCCCCCCCCO)=C(C)C1=O` [IDEBENONE], the AC50 (in assay [1]; in assay [2]; at D(1A) dopamine receptor) was above 10 µM each time.

Take `Nc1nc2c(c(=O)[nH]1)N(C=O)C(CNc1ccc(C(=O)N[C@@H](CCC(=O)O)C(=O)O)cc1)CN2` (stereo not given in full) [LEUCOVORIN]: the AC50 (at Androgen receptor; in assay [3]; in assay [4]) was above 30 µM in each case.

Molecule `CC(C)OC(=O)C(C(=O)OC(C)C)=C1SC=CS1` [MALOTILATE] displayed an AC50 on Androgen receptor above 30 µM.

Regarding `O=C1CN=C(c2ccccc2)c2cc(Cl)ccc2N1` [NORDAZEPAM], the AC50 (in assay [1]; in assay [2]; on D(1A) dopamine receptor) was above 10 µM in each case.

With `CCn1cc(C(=O)O)c(=O)c2cc(F)c(N3CCN(C)CC3)cc21` [PEFLOXACIN], the AC50 in assay [3] and in assay [4] was above 30 µM throughout.

In assay [1], `CC1(C)C(C=C(Cl)Cl)C1C(=O)OCc1cccc(Oc2ccccc2)c1` (stereo not given) [PERMETHRIN] gave an AC50 above 10 µM.

On to `CC(=O)c1ccc2c(c1)N(CCCN1CCC(CCO)CC1)c1ccccc1S2` [PIPERACETAZINE], for which the AC50 worked out at 0.0421 µM in assay [2] and 0.012 µM in assay [6].

As for `C[n+]1ccccc1/C=N/O` [PRALIDOXIME], in assay [3], the AC50 is above 30 µM.

Consider `CCCNC(C)C(=O)Nc1ccccc1C` (stereo not given) [PRILOCAINE], for which the AC50 in assay [3] and in assay [4] was above 30 µM in each case.

`NC(=O)CCC/N=C(\c1ccc(Cl)cc1)c1cc(F)ccc1O` [PROGABIDE] yielded an AC50 in assay [6] above 10 µM.

Consider `CCN(CC)CC(=O)Oc1ccc(NC(C)=O)cc1` [PROPACETAMOL], for which the AC50 at Androgen receptor was above 30 µM.

The molecule `Cc1cc2nc3c(=O)[nH]c(=O)nc-3n(C[C@H](O)[C@H](O)[C@H](O)COP(=O)(O)O)c2cc1C` [RIBOFLAVIN 5'-PHOSPHATE] displayed an AC50 on Androgen receptor above 3 µM.

Take `CC(C)CC(N(C)C)C1(c2ccc(Cl)cc2)CCC1` (stereo not given) [SIBUTRAMINE]: the AC50 (in assay [1]; in assay [2]; at D(1A) dopamine receptor) was above 10 µM in each case.

For `[H]/N=C(/N)N[C@H]1[C@H](O)[C@@H](O)[C@H](O[C@@H]2O[C@@H](C)[C@](O)(C=O)[C@H]2O[C@@H]2O[C@@H](CO)[C@H](O)[C@@H](O)[C@@H]2NC)[C@@H](N/C(N)=N\[H])[C@@H]1O` [STREPTOMYCIN], the AC50 (in assay [1]; in assay [2]; at D(1A) dopamine receptor) was above 10 µM each time.

Consider `COc1cc2c(Nc3ccc(Br)cc3F)ncnc2cc1OCC1CCN(C)CC1` [VANDETANIB], for which the AC50 in assay [3], in assay [5] and in assay [4] was above 30 µM each time.

With `COc1ccc(C(CN(C)C)C2(O)CCCCC2)cc1` (stereo not given) [VENLAFAXINE], the concentration at half-maximal activity (AC50) in assay [1] and in assay [2] was above 10 µM throughout.
